# According to publication PMC11853379, “Glioblastoma Cell Migration, Invasion and Vasculogenic Mimicry Downmodulated by Novel uPAcyclin Derivatives” (Cells, 2025):
# Positions of bridges follow the written chain, without caps; N, C: chain ends. Residues, ends and D or L forms follow the SMILES beside them.
# Tests used:
# [1] = target: T1, integrin αV receptors on the GBM cell surface (U87-MG cells) (Homo sapiens, UniProt P06756); assay: Receptor binding assay: displacement of FITC-uPAcyclin from U87-MG living cells; details: for increase of binding affinity compared to uPAcyclin / binding affinity compared to uPAcyclin (in words): U87-MG cells; for binding affinity compared to uPAcyclin (in words): displacement of FITC-uPAcyclin
# T1 construct: endogenous in cells; host or cells: U87-MG human glioblastoma cells (living, acid-treated, 4 °C)
# Experimental: The U87-MG and U251-MG cell lines were harvested and acid-treated, as described. Briefly, 2 × 10^6 cells/sample were pre-incubated for 30 min at 4 °C with uPAcyclin and Ala peptides and subsequently exposed to 50 nM FITC-uPAcyclin for 2 h at 4 °C, as described. The experiments were performed three times, with duplicate samples, and analyzed as reported in the statistical analysis.
# This assay confirmed that FITC-uPAcyclin binds specifically to both GBM cell lines and to the HEK-293/αV, whereas little interaction is detected with HEK-293 cells (Supporting Information, Table S7). […] To investigate the ability of novel Ala-scan peptides to compete with uPAcyclin for binding to integrin αV receptors on the GBM cell surface, the specific interaction of FITC-conjugated uPAcyclin with U87-MG living cells was tested via a receptor binding assay. U87-MG GBM cells were pre-incubated with increasing concentrations of unlabeled Ala peptides and then exposed to FITC-uPAcyclin (Figure 1A). […] When considering the relative Kdapp of uPAcyclin variants, it can be inferred that the replacement either of each of the three prolines (Pro^2, Pro^5, Pro^6) or Lys^1 increases the binding affinity of the resulting peptide compared to uPAcyclin. In contrast, the Ala mutation of other residues is detrimental to the peptide binding affinity.
# (§1) Figure 1 Binding of Ala peptides to U87-MG cells and effect of uPAcyclin and Ala peptides on U87-MG cellular migration. (A) A total of 2 × 10^6 U87-MG cells were pre-incubated for 30 min at 4 °C with increasing concentrations of unlabeled uPAcyclin and Ala peptides and then exposed to 50 nM of FITC-uPAcyclin for 2 h at 4 °C. Cell surface-associated fluorescence, as percentage of the sample with […], is shown. Experiments were carried out in duplicate, and the data shown here are representative of three independent experiments. (B) 11 × 10^4 U87-MG cells/sample were pre-treated for 40 min at 37 °C with increasing concentrations of uPAcyclin or the indicated Ala peptides and then assayed in Boyden chambers for 5% FBS-dependent migration for 3 h at 37 °C. At the end of incubation, the filters were processed as described in the Methods section. For clarity here and in the following Figures, Ala-x indicates the peptide with substituted x-position. For both assays, the p-values are in the range of 0.005 ≤ p ≤ 0.001, apart from [Ala1]uPAcyclin in the migration assay with p ≤ 0.05.
# U87-MG cells = format: cell-based, human; details: for inhibitory activity on cell migration, comparison (in words): U87-MG migration toward 5% FBS
# Experimental: The migration and invasion assays were performed with Boyden chambers, according to De Vincenzo et al., using 11 × 10^4 U87-MG and U251-MG glioblastoma cells/sample pre-treated for 40 min at 37 °C with the indicated effectors and then allowed to migrate for 3 h or to invade for 5 h at 37 °C toward 5% FBS in DMEM/0.1% BSA. The migrated or invaded cells were reported as a percentage of basal random migration or invasion and analyzed as reported in the Statistical Analyses section. The migration and invasion experiments were conducted in triplicate.
# as §1
# Alterations of the amino acid sequence may affect the peptide structure and may, in turn, alter its function. To test for differences in the inhibitory activity of the Ala-substituted peptides, U87-MG glioblastoma cells were subjected to a directional migration assay in Boyden chambers towards FBS, in the presence or in the absence of the indicated concentrations of uPAcyclin or one of its Ala-scan derivatives (Figure 1B).
# GBM = details: surgical resection, radiotherapy and concomitant Temozolomide; extended from 12.1 months; cited from earlier work
# Description: Glioblastoma (GBM) is the most common malignant primary brain tumor, characterized by micro-vascular proliferation, cellular necrosis and the pronounced invasiveness of surrounding parenchima with high recurrency and a high mortality rate. […] In particular, surgery still represents an important pillar of treat ...
# T1 sequence (P06756 31-889 limits assumed): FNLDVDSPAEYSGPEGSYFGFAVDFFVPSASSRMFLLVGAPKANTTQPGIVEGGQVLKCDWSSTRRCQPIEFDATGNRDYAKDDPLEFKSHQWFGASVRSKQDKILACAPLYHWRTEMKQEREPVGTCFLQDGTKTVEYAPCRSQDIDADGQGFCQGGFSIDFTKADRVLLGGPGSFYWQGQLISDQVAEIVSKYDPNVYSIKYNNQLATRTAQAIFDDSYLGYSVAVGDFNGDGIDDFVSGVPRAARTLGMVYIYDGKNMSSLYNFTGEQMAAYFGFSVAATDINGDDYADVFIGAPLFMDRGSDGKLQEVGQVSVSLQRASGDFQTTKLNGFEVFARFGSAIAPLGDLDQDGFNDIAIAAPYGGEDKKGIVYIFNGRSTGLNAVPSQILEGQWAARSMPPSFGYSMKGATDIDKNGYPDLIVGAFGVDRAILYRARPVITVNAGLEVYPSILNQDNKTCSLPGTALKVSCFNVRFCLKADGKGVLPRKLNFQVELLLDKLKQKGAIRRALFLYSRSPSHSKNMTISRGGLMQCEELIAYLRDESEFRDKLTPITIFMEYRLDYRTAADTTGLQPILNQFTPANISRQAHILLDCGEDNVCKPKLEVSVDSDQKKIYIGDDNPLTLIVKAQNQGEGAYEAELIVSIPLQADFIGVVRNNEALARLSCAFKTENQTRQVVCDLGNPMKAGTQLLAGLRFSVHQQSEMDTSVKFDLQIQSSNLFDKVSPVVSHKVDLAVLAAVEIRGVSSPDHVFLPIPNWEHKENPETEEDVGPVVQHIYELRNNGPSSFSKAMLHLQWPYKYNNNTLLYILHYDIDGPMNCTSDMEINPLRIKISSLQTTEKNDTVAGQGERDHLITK
# T1 sequence (P06756 891-1048 limits assumed): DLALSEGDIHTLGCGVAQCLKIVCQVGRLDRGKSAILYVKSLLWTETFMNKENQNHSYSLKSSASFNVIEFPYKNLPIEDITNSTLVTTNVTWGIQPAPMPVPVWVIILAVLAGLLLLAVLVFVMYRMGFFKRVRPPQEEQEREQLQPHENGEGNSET
Structure (SMILES),improvement in binding compared to parental uPAcyclin ([1]; GBM cells),increase of binding affinity compared to uPAcyclin [1],binding affinity compared to uPAcyclin (in words) [1],"inhibitory activity on cell migration, comparison (in words) (U87-MG cells)",IC50 of migration lower / inhibitory activity higher than parental uPAcyclin (U87-MG cells; U87-MG migration),median overall survival (GBM)
CC(=O)N[C@@H](CCCCN)C(=O)N1CCC[C@H]1C(=O)N[C@H]1CCC(=O)NCCCC[C@@H](C(N)=O)NC(=O)[C@H](CC(C)C)NC(=O)[C@H](CCC(=O)O)NC(=O)[C@H](CCC(=O)O)NC(=O)[C@@H]2CCCN2C(=O)[C@H](C)NC(=O)[C@H](CO)NC1=O [[Ala^5]uPAcyclin] (Ac-KPESAPEELK-NH2; lactam 3-10),10 fold,about 1 log,definitely higher than that of the parental uPAcyclin,strong inhibitors,–,–
CC(=O)N[C@@H](CCCCN)C(=O)N[C@@H](C)C(=O)N[C@H]1CCC(=O)NCCCC[C@@H](C(N)=O)NC(=O)[C@H](CC(C)C)NC(=O)[C@H](CCC(=O)O)NC(=O)[C@H](CCC(=O)O)NC(=O)[C@@H]2CCCN2C(=O)[C@@H]2CCCN2C(=O)[C@H](CO)NC1=O [[Ala^2]uPAcyclin] (Ac-KAESPPEELK-NH2; lactam 3-10),–,about 1 log,definitely higher than that of the parental uPAcyclin,strong inhibitors,about 10 fold,–
Cn1nnc2c(C(N)=O)ncn2c1=O [Temozolomide],–,–,–,–,–,14.6 months
